Test results from PubChem BioAssay AID316 (DTP/NCI, 2004).
“And” between values parts separate entries of the source, which are not always exact repeats. Equal values may be shown once. Toxic doses and inconclusive results are not listed.

Test system: P1534 leukemia ip, CD2F1 mice, survival T/C
Assay: NCI In Vivo Anticancer Drug Screen. Data for tumor model P1534 Leukemia (intraperitoneal) in CD2F1 (CDF1) mice
Conditions: endpoint: mean survival time, higher = longer survival
Procedure: The antitumor activity of compounds was measured in mice bearing transplantable tumors. Survival or tumor size were measured and the results are expressed as the measurement made in the treated group (T) divided by the measurement made in the vehicle treated control group (C). The tumor model used in this assay is P1534 Leukemia (intraperitoneal) in CD2F1 (CDF1) mice

[1] = dose: 50.0 mg/kg/injection, schedule: Q01DX010 (ip), vehicle: saline
[2] = dose: 25.0 mg/kg/injection, schedule: Q01DX010 (ip), vehicle: saline
[3] = dose: 100.0 mg/kg/injection, schedule: Q01DX010 (ip), vehicle: saline
[4] = dose: 62.5 mg/kg/injection, schedule: Q01DX010 (ip), vehicle: saline
[5] = dose: 125.0 mg/kg/injection, schedule: Q01DX010 (ip), vehicle: saline
[6] = dose: 250.0 mg/kg/injection, schedule: Q01DX010 (ip), vehicle: saline

CC(=O)OC(C)(C)/C=C/C(=O)[C@](C)(O)[C@H]1[C@H](O)C[C@@]2(C)[C@@H]3CC=C4[C@@H](CC[C@H](O)C4(C)C)[C@]3(CO)C(=O)C[C@]12C
T/C (dose: 0.16 mg/kg/injection, schedule: Q01DX010 (ip), vehicle: saline): 103 % of control | T/C (dose: 0.25 mg/kg/injection, schedule: Q01DX010 (ip), vehicle: saline): 100 % of control | T/C (dose: 0.38 mg/kg/injection, schedule: Q01DX010 (ip), vehicle: saline): 103 % of control | T/C (dose: 0.57 mg/kg/injection, schedule: Q01DX010 (ip), vehicle: saline): 103 % of control

CC(C)=CCC1=C(O)c2ccccc2C(=O)C1=O
T/C (dose: 200.0 mg/kg/injection, schedule: Q01DX010 (oral), vehicle: other): 102 % of control | T/C (dose: 300.0 mg/kg/injection, schedule: Q01DX010 (oral), vehicle: other): 115 % of control | T/C (dose: 400.0 mg/kg/injection, schedule: Q01DX010 (oral), vehicle: other): 112 % of control | T/C (dose: 600.0 mg/kg/injection, schedule: Q01DX010 (oral), vehicle: other): 103 % of control

CC[C@]1(O)C[C@H]2CN(CCc3c([nH]c4ccccc34)[C@@](C(=O)OC)(c3cc4c(cc3OC)N(C=O)[C@H]3[C@@](O)(C(=O)OC)[C@H](OC(C)=O)[C@]5(CC)C=CCN6CC[C@]43[C@@H]65)C2)C1
T/C (dose: 0.02 mg/kg/injection, schedule: Q01DX010 (ip), vehicle: saline): 97 % of control | T/C (dose: 0.03 mg/kg/injection, schedule: Q01DX010 (ip), vehicle: saline): 86 % of control | T/C (dose: 0.05 mg/kg/injection, schedule: Q01DX010 (ip), vehicle: water): 100 % of control | T/C (dose: 0.1 mg/kg/injection, schedule: Q01DX010 (ip), vehicle: water): 156 % of control | T/C (dose: 0.13 mg/kg/injection, schedule: Q02DX008 (ip), vehicle: saline): 160 % of control and 259 % of control and 306 % of control | T/C (dose: 0.15 mg/kg/injection, schedule: Q## X004 (ip), vehicle: saline): 119 % of control and 181 % of control and 234 % of control | T/C (dose: 0.16 mg/kg/injection, schedule: Q## X032 (ip), vehicle: saline): 208 % of control | T/C (dose: 0.2 mg/kg/injection, schedule: Q01DX010 (ip), vehicle: water): 305 % of control | T/C (dose: 0.2 mg/kg/injection, schedule: Q02DX008 (ip), vehicle: saline): 221 % of control and 270 % of control and 290 % of control | T/C (dose: 0.22 mg/kg/injection, schedule: Q## X004 (ip), vehicle: saline): 231 % of control and 242 % of control and 270 % of control | T/C (dose: 0.24 mg/kg/injection, schedule: Q## X032 (ip), vehicle: saline): 187 % of control and 193 % of control and 212 % of control | T/C (dose: 0.3 mg/kg/injection, schedule: Q02DX008 (ip), vehicle: saline): 298 % of control and 302 % of control and 352 % of control | T/C (dose: 0.35 mg/kg/injection, schedule: Q## X004 (ip), vehicle: saline): 256 % of control and 273 % of control and 304 % of control | T/C (dose: 0.36 mg/kg/injection, schedule: Q## X032 (ip), vehicle: saline): 234 % of control and 241 % of control and 282 % of control | T/C (dose: 0.44 mg/kg/injection, schedule: Q02DX008 (ip), vehicle: saline): 154 % of control and 197 % of control and 358 % of control | T/C (dose: 0.53 mg/kg/injection, schedule: Q## X004 (ip), vehicle: saline): 270 % of control and 344 % of control and 366 % of control | T/C (dose: 0.54 mg/kg/injection, schedule: Q## X032 (ip), vehicle: saline): 274 % of control and 275 % of control and 335 % of control | T/C (dose: 0.8 mg/kg/injection, schedule: Q## X004 (ip), vehicle: saline): 283 % of control and 357 % of control | T/C (dose: 0.8 mg/kg/injection, schedule: Q## X032 (ip), vehicle: saline): 190 % of control and 218 % of control and 92 % of control | T/C (dose: 1.2 mg/kg/injection, schedule: Q## X004 (ip), vehicle: saline): 152 % of control | T/C (dose: 1.2 mg/kg/injection, schedule: Q## X032 (ip), vehicle: saline): 92 % of control | T/C (dose: 1.45 mg/kg/injection, schedule: Q01DX001 (ip), vehicle: saline): 188 % of control and 237 % of control | T/C (dose: 1.45 mg/kg/injection, schedule: Q## X001 (ip), vehicle: saline): 294 % of control | T/C (dose: 1.5 mg/kg/injection, schedule: Q01DX001 (ip), vehicle: saline): 159 % of control and 188 % of control and 212 % of control | T/C (dose: 1.8 mg/kg/injection, schedule: Q## X004 (ip), vehicle: saline): 100 % of control | T/C (dose: 2.9 mg/kg/injection, schedule: Q01DX001 (ip), vehicle: saline): 158 % of control | T/C (dose: 2.9 mg/kg/injection, schedule: Q## X001 (ip), vehicle: saline): 297 % of control | T/C (dose: 26.0 micrograms/kg/injection, schedule: Q01DX010 (ip), vehicle: saline): 123 % of control and 208 % of control | T/C (dose: 27.0 micrograms/kg/injection, schedule: Q01DX015 (ip), vehicle: saline): 167 % of control and 173 % of control | T/C (dose: 40.0 micrograms/kg/injection, schedule: Q01DX015 (ip), vehicle: saline): 161 % of control and 240 % of control | T/C (dose: 60.0 micrograms/kg/injection, schedule: Q01DX015 (ip), vehicle: saline): 221 % of control and 226 % of control | T/C (dose: 90.0 micrograms/kg/injection, schedule: Q01DX015 (ip), vehicle: saline): 215 % of control and 228 % of control and 260 % of control | T/C (dose: 135.0 micrograms/kg/injection, schedule: Q01DX015 (ip), vehicle: saline): 221 % of control and 281 % of control and 297 % of control | T/C (dose: 200.0 micrograms/kg/injection, schedule: Q01DX015 (ip), vehicle: saline): 196 % of control and 233 % of control and 340 % of control | T/C (dose: 300.0 micrograms/kg/injection, schedule: Q01DX010 (ip), vehicle: saline): 181 % of control and 240 % of control | T/C (dose: 300.0 micrograms/kg/injection, schedule: Q01DX015 (ip), vehicle: saline): 200 % of control

COc1cc2c3c(c4cc(OC)c(OC)cc4c2cc1OC)CN1CCC[C@H]1C3
T/C (dose: 3.9 mg/kg/injection, schedule: Q01DX010 (ip), vehicle: saline): 115 % of control | T/C (dose: 7.8 mg/kg/injection, schedule: Q01DX010 (ip), vehicle: saline): 107 % of control

CCc1c(CC(=O)O)c2cc(C)ccc2n1Cc1ccc(Cl)cc1
T/C [1]: 107 % of control

C[n+]1c2ccccc2nc2c(N)cc(N)cc21
T/C (dose: 5.2 mg/kg/injection, schedule: Q01DX010 (ip), vehicle: saline): 114 % of control

SCc1ccccn1
T/C [2]: 107 % of control | T/C [1]: 100 % of control | T/C [3]: 115 % of control | T/C (dose: 200.0 mg/kg/injection, schedule: Q01DX010 (ip), vehicle: saline): 115 % of control

Cn1c(=O)c2c(ncn2C)n(C)c1=O
T/C [2]: 100 % of control | T/C [1]: 100 % of control | T/C [3]: 100 % of control

NC1=NNC(=O)C1
T/C (dose: 100.0 mg/kg/injection, schedule: Q01DX010 (ip), vehicle: water): 95 % of control | T/C (dose: 150.0 mg/kg/injection, schedule: Q01DX010 (ip), vehicle: water): 95 % of control

COc1ccc2c(c1OC)C(=O)O[C@@H]2[C@H]1c2c(cc3c(c2OC)OCO3)CCN1C
T/C (dose: 31.3 mg/kg/injection, schedule: Q01DX010 (ip), vehicle: saline): 103 % of control | T/C [4]: 92 % of control and 100 % of control | T/C [5]: 100 % of control | T/C [6]: 100 % of control

CC(=O)O[C@H]1C(=O)[C@@]2(C)[C@H]([C@H](OC(=O)c3ccccc3)[C@]3(O)C[C@H](OC(=O)[C@H](O)[C@@H](NC(=O)c4ccccc4)c4ccccc4)C(C)=C1C3(C)C)[C@]1(OC(C)=O)CO[C@@H]1C[C@@H]2O
T/C (dose: 1.88 mg/kg/injection, schedule: Q01DX010 (ip), vehicle: saline): 300 % of control | T/C (dose: 3.75 mg/kg/injection, schedule: Q01DX010 (ip), vehicle: saline): 300 % of control | T/C (dose: 7.5 mg/kg/injection, schedule: Q01DX010 (ip), vehicle: saline): 250 % of control | T/C (dose: 15.0 mg/kg/injection, schedule: Q01DX010 (ip), vehicle: saline): 89 % of control

CCC(=O)O[C@H]1CC[C@H]2[C@@H]3CCC4=CC(=O)CC[C@]4(C)[C@H]3CC[C@]12C
T/C (dose: 62.5 mg/kg/injection, schedule: Q01DX010 (sc), vehicle: steriod suspending solution): 96 % of control | T/C (dose: 125.0 mg/kg/injection, schedule: Q01DX010 (sc), vehicle: steriod suspending solution): 100 % of control | T/C (dose: 250.0 mg/kg/injection, schedule: Q01DX010 (sc), vehicle: steriod suspending solution): 100 % of control | T/C (dose: 500.0 mg/kg/injection, schedule: Q01DX010 (sc), vehicle: steriod suspending solution): 100 % of control

O=C(NO)c1cccnc1
T/C (dose: 270.0 mg/kg/injection, schedule: Q01DX010 (ip), vehicle: water): 113 % of control | T/C (dose: 400.0 mg/kg/injection, schedule: Q01DX010 (ip), vehicle: water): 107 % of control | T/C (dose: 600.0 mg/kg/injection, schedule: Q01DX010 (ip), vehicle: water): 107 % of control and 120 % of control

O=c1cn[nH]c(=O)[nH]1
T/C [4]: 94 % of control and 100 % of control | T/C [5]: 100 % of control | T/C [6]: 94 % of control and 100 % of control | T/C (dose: 500.0 mg/kg/injection, schedule: Q01DX010 (ip), vehicle: saline): 105 % of control and 111 % of control

NCCCC(N)C(=O)NCCCCCCNCCCCCCNC(=O)C(N)CCCN (stereo not given)
T/C (dose: 12.5 mg/kg/injection, schedule: Q01DX010 (ip), vehicle: saline): 100 % of control | T/C [2]: 92 % of control | T/C [1]: 100 % of control | T/C [3]: 96 % of control
